Results from patent US20120004172A1, “SCREENING METHOD OF ANTI-LUNG OR ESOPHAGEAL CANCER COMPOUNDS” (Oncotherapy Science, Inc., priority 2008, published 2012).

Assays:
[1] = cited from earlier work
[2] = system: A549 lung cancer cell line; test: Growth assay (MTT) after transfection of CDCA5 mutant vectors, A549; type: cell-based, human; settings: MTT at 6th day after transfection; compared with mock and wild type vectors
Experimental: (§1) [FIG. 7A] The function of ERK-dependent phosphorylation sites in cancer cells. […] Growth assay was performed using A549 and LC319 lung cancer cell lines transfected with mock, wild type and CDCA5 alanine substitute vectors. MTT assay was performed at 6th day after transfection.
(§2) [FIG. 7B] The function of ERK-dependent phosphorylation sites in cancer cells. B, Growth assay was performed using LC319 and A549 lung cancer cell line which was transfected with mock, wild type and CDCA5 phospho-mimicking mutant vectors. MTT assay was performed at 6th day after transfection.
(§3) Cell growth may be measured by methods known in the art, e.g., using the MTT cell proliferation assay; briefly, cell-counting kit-8 solution (DOJINDO) is added to each dish at a concentration of 1/10 volume, and the plates are incubated at 37 degree Centigrade (C) for additional 2 hours. Absorbance is then measured at 450 nm as a reference, with a Microplate Reader 550 (BIO-RAD, Hercules, Calif.).

[3] = system: LC319 lung cancer cell line; test: Growth assay (MTT) after transfection of CDCA5 mutant vectors, LC319; type: cell-based, human; settings: MTT at 6th day after transfection; compared with mock and wild type vectors
Experimental: as §1, §2, §3

CDCA5 = system: CDCA5
Experimental: (§4) [FIG. 5] […] B, Non-tagged CDCA5 expressing vector was transfected to HeLa cells. After starving the cells in FBS free for 20 hours, EGF stimulations were performed at 5, 10, 20, 30 minutes. 10 uM U0126 treatment was performed for 1 hour.
(§5) Cultured cervical squamous cell carcinoma HeLa cells were cultured in FCS free medium for 20 hours. Then, the cells were stimulated by […] EGF for 20 min with or without 10 micro-M MEK inhibitor U0126 (Promega).

ERK = settings: EGF stimulation
Experimental: as §4
[FIG. 6A] […] A, ERK1 or ERK2 expressing vector was co-transfected with non-tagged CDCA5 expressing vector to HeLa cells. After starvation of HeLa cells in FBS free for 20 hours, the cells were stimulated with 50 ng/ml EGF for 5, 10, 20, 30 minutes, respectively. 10 uM U0126 treatment was performed for 1 hour before EGF stimulation.
as §5

C#Cc1cccc(Nc2ncnc3cc(OCCOC)c(OCCOC)cc23)c1 [erlotinib]
median survival ([1]; NSCLC, placebo 4.7 months (NPL 10)): 6.7 months

Ser209 alanine substitute: CDCA5 mutant, alanine at position 209 (SEQ ID NO: 7), expressed from transfected vector; dominant negative
growth of A549 cells (MTT assay) [2]: inhibited the growth
growth of LC319 cells (MTT assay) [3]: inhibited the growth

N#CC(=C(/N)Sc1ccccc1N)/C(C#N)=C(\N)Sc1ccccc1N [U0126]
upper shift of endogenous CDCA5 band (CDCA5; serum-starved HeLa cells, EGF stimulation, 10 micro-M U0126): completely inhibited the upper shift of CDCA5 band
signal of spot no. 2 of myc-tagged CDCA5 increased by EGF stimulation (CDCA5; transfected HeLa cells, 2D-Western-blotting with anti-myc antibody, U0126 treatment): also reduced
EGF-induced shifted spots (no. 3 and 4) with more acidic pI of myc-tagged CDCA5 (CDCA5; transfected HeLa cells, 2D-Western-blotting with anti-myc antibody, pre-incubation with U0126): significantly reduced
activation of exogenous ERK1 or 2 as well as endogenous ERK (ERK; HeLa cells transfected with ERK1 or ERK2 and CDCA5 vectors, 10 uM U0126 for 1 hour before EGF): but not in U0126 MEK inhibitor treatment
levels of ERK phosphorylation (ERK; serum-starved HeLa cells, 10 micro-M U0126): reduced the levels of ERK phosphorylation

COc1cc2ncnc(Nc3ccc(F)c(Cl)c3)c2cc1OCCCN1CCOCC1 [gefitinib]
response rate and symptom control ([1]; NSCLC (NPL 11)): superior response rate and symptom control
